Where “and” joins values, the source holds several entries; their conditions need not be identical. Equal values may be shown once. Read-outs that look alike come from different tables or passages of the source.
Columns and labels:
C. albicans Hsp90 NBD = molecular target: T1, C. albicans Hsp90 NBD (Candida albicans, UniProt P46598); test: biochemical; format: binding; settings: 0.1 nM Cy3-GdA, C. albicans NBD-Hsp90 (10 nM); for FP signal (raw) / FP signal as fraction of no-compound (0 uM) control: Experiments 1-3
T1 construct: C. albicans Hsp90 (E7-K218); made in house; host or cells: E. coli Rosetta2
T1 sequence (P46598 7-218): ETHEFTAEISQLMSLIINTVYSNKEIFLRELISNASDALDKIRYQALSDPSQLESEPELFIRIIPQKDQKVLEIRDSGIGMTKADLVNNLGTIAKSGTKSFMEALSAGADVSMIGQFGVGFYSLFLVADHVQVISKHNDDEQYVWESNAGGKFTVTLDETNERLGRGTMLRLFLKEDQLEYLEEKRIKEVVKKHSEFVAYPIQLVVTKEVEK

human Hsp90 NBD = human Hsp90 NBD (Homo sapiens, UniProt P08238); settings: 0.1 nM Cy3-GdA, Human NBD-Hsp90 (10 nM); for FP signal (raw) / FP signal as fraction of no-compound (0 uM) control: Experiments 1-3
Sequence of human Hsp90 NBD (P08238 1-223): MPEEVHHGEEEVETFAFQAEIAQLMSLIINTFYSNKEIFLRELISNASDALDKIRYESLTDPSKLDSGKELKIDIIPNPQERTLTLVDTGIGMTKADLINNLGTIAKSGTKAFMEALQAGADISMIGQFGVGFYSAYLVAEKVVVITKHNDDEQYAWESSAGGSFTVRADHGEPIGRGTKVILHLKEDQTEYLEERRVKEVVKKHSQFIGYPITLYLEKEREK

human Grp94 NBD = human Grp94 NBD (Homo sapiens, UniProt P14625); settings: 0.1 nM Cy3-GdA, Experiments 1-3
Sequence of human Grp94 NBD (P14625 63-337): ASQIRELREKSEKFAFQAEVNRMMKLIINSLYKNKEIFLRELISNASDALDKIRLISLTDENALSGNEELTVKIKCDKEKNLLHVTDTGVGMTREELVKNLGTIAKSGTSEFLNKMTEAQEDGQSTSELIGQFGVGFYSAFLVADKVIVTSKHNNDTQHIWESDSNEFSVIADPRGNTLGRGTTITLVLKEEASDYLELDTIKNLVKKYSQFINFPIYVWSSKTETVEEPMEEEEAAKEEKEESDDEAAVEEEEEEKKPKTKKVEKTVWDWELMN

[1] = Experiments 1-3, one value per experiment

COc1ccc(CON=C2C=CC=CC3OC3CC(C)OC(=O)c3c(O)cc(O)cc3C2)cc1 (mixture of isomers) [LEB075]
EC50 (C. albicans Hsp90 NBD; [1]): 82.3 nM and 83.8 nM | FP signal (raw) (C. albicans Hsp90 NBD; Cmpd 0.002 uM): 109 and 127 | FP signal as fraction of no-compound (0 uM) control (C. albicans Hsp90 NBD; Cmpd 0.002 uM): 0.6412 and 0.7471 | FP signal (raw) (C. albicans Hsp90 NBD; Cmpd 0.004 uM): 109 | FP signal as fraction of no-compound (0 uM) control (C. albicans Hsp90 NBD; Cmpd 0.004 uM): 0.6412 and 0.6941 | FP signal (raw) (C. albicans Hsp90 NBD; Cmpd 0.008 uM): 101 and 104 | FP signal as fraction of no-compound (0 uM) control (C. albicans Hsp90 NBD; Cmpd 0.008 uM): 0.5941 and 0.6118 | FP signal (raw) (C. albicans Hsp90 NBD; Cmpd 0.016 uM): 93 and 101 | FP signal as fraction of no-compound (0 uM) control (C. albicans Hsp90 NBD; Cmpd 0.016 uM): 0.5471 and 0.5941 | FP signal (raw) (C. albicans Hsp90 NBD; Cmpd 0.063 uM): 72 and 79 | FP signal as fraction of no-compound (0 uM) control (C. albicans Hsp90 NBD; Cmpd 0.063 uM): 0.4235 and 0.4647 | FP signal (raw) (C. albicans Hsp90 NBD; Cmpd 0.25 uM): 38 and 42 | FP signal as fraction of no-compound (0 uM) control (C. albicans Hsp90 NBD; Cmpd 0.25 uM): 0.2235 and 0.2471 | FP signal (raw) (C. albicans Hsp90 NBD; Cmpd 0.5 uM): 24 and 26 | FP signal as fraction of no-compound (0 uM) control (C. albicans Hsp90 NBD; Cmpd 0.5 uM): 0.1412 and 0.1529 | FP signal (raw) (C. albicans Hsp90 NBD; Cmpd 1 uM): 15 and 17 | FP signal as fraction of no-compound (0 uM) control (C. albicans Hsp90 NBD; Cmpd 1 uM): 0.1 and 0.08824 | FP signal (raw) (C. albicans Hsp90 NBD; Cmpd 2 uM): 20 | FP signal as fraction of no-compound (0 uM) control (C. albicans Hsp90 NBD; Cmpd 2 uM): 0.1176 | EC50 (human Hsp90 NBD; [1]): 1650 nM and 1630 nM | FP signal (raw) (human Hsp90 NBD; Cmpd 0.002 uM): 147 and 148 | FP signal as fraction of no-compound (0 uM) control (human Hsp90 NBD; Cmpd 0.002 uM): 0.98 and 0.9737 | FP signal (raw) (human Hsp90 NBD; Cmpd 0.004 uM): 148 and 151 | FP signal as fraction of no-compound (0 uM) control (human Hsp90 NBD; Cmpd 0.004 uM): 0.9867 and 0.9934 | FP signal (raw) (human Hsp90 NBD; Cmpd 0.008 uM): 149 | FP signal as fraction of no-compound (0 uM) control (human Hsp90 NBD; Cmpd 0.008 uM): 0.9933 and 0.9803 | FP signal (raw) (human Hsp90 NBD; Cmpd 0.016 uM): 150 and 149 | FP signal as fraction of no-compound (0 uM) control (human Hsp90 NBD; Cmpd 0.016 uM): 1 and 0.9803 | FP signal (raw) (human Hsp90 NBD; Cmpd 0.063 uM): 147 and 150 | FP signal as fraction of no-compound (0 uM) control (human Hsp90 NBD; Cmpd 0.063 uM): 0.98 and 0.9868 | FP signal (raw) (human Hsp90 NBD; Cmpd 0.25 uM): 141 and 143 | FP signal as fraction of no-compound (0 uM) control (human Hsp90 NBD; Cmpd 0.25 uM): 0.94 and 0.9408 | FP signal (raw) (human Hsp90 NBD; Cmpd 0.5 uM): 130 | FP signal as fraction of no-compound (0 uM) control (human Hsp90 NBD; Cmpd 0.5 uM): 0.8667 and 0.8553 | FP signal (raw) (human Hsp90 NBD; Cmpd 1 uM): 112 and 106 | FP signal as fraction of no-compound (0 uM) control (human Hsp90 NBD; Cmpd 1 uM): 0.7067 and 0.7368 | FP signal (raw) (human Hsp90 NBD; Cmpd 2 uM): 58 and 61 | FP signal as fraction of no-compound (0 uM) control (human Hsp90 NBD; Cmpd 2 uM): 0.4067 and 0.3816 | FP signal (raw) (human Grp94 NBD; Cmpd 0.002 uM): 157 | FP signal (raw) (human Grp94 NBD; Cmpd 0.004 uM): 159 | FP signal (raw) (human Grp94 NBD; Cmpd 0.008 uM): 150 | FP signal (raw) (human Grp94 NBD; Cmpd 0.016 uM): 147 | FP signal (raw) (human Grp94 NBD; Cmpd 0.063 uM): 136 | FP signal (raw) (human Grp94 NBD; Cmpd 0.25 uM): 109
